Reference: ChEMBL document CHEMBL6074640, “Novel Heteroaryl Fluoroalkenes as DGK Inhibitors for Treating Cancer, Particularly Metastatic Melanoma” (ACS Med Chem Lett, 2024)

Target: Diacylglycerol kinase alpha (Homo sapiens, UniProt P23743)
Assay: Inhibition of His-tagged recombinant human DGKalpha using DLG as substrate preincubated with substrate and ATP for 1 mins followed by compound addition and measured after 90 mins by ADP-Glo kinase assay

Diacylglycerol kinase alpha, sequence (P23743 whole entry): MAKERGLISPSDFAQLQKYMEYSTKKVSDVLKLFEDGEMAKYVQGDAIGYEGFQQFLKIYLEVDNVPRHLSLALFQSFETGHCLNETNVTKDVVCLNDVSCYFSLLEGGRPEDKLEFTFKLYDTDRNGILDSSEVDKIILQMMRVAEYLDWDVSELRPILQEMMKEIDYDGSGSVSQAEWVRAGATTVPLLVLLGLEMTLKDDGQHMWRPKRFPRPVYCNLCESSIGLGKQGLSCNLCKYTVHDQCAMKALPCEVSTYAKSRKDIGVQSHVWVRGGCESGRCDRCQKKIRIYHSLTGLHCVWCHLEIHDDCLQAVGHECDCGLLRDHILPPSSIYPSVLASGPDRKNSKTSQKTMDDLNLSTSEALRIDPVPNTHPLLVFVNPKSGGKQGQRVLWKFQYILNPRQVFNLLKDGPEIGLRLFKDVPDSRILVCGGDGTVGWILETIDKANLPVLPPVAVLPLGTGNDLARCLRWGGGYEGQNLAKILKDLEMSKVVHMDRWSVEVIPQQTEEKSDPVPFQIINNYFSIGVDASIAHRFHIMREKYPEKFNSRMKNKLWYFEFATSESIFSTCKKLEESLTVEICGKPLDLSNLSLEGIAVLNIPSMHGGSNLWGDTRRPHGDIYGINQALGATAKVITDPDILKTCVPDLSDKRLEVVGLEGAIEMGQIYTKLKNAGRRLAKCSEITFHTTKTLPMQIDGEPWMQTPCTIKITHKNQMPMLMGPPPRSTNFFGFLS

| Structure (SMILES) | IC50 |
| --- | --- |
| COc1cc(F)ccc1Oc1ccc(/C=C(\F)c2nncc(N3CCC(F)(F)C3)n2)c(N2CCC[C@@H](CN)C2)c1Cl | ≤ 20 nM |
| CCN1CCC2(CC1)CN(c1c(/C=C(\F)c3nccc(-c4ccnnc4)n3)ccc(Oc3ccccc3)c1C(F)(F)F)CCO2 | ≤ 20 nM |
| CCN1CCC2(CCCN(c3c(/C=C(\F)c4nccc(N5CC(F)(F)C5)n4)ccc(Oc4ccccc4F)c3C(F)(F)F)C2)CC1 | ≤ 20 nM |

Continued, values first:

| IC50 | Structure (SMILES) |
| --- | --- |
| ≤ 20 nM | F/C(=C\c1ccc(Oc2ccccc2F)c(C(F)(F)F)c1N1CCCC2(CCN(CC3CC3)CC2)C1)c1nccc(-c2cnsc2)n1 |
| ≤ 20 nM | NC[C@H]1CCCN1c1c(/C=C(\F)c2nccc(-c3ccnnc3)n2)ccc(Oc2ccccc2)c1Cl |
